Laboratory results from patent US4849436A, “1,4-dihydropyridines” (Nelson Research & Development Co., priority 1986, dated 1989).

Biological target: T1, dihydropyridine (DHP) site (Oryctolagus cuniculus, UniProt P07293)
T1 construct: Washed rabbit skeletal muscle membranes (fraction 2-8X); from tissue; host or cells: rabbit skeletal muscle, washed membranes (fraction 2-8X)
Assay: 3H-nitrendipine binding assay on washed rabbit skeletal muscle membranes
Details: read-out: Binding Assay KI (moles)
Description: The incubation tubes were rapidly chilled in ice and the contents filtered through Whatman GF/B filters on a Millipore manifold, and the filters washed with 2×10 ml ice-cold HEPES buffer. The filters were placed in scintillation counting vials with 8 ml of Cytoscint cocktail, disrupted mechanically by shaking for 30 minutes and counted.
Drugs which interact at the dihydropyridine (DHP) site will reduce this specific binding in a dosedependent manner. The assays for the compounds of this invention were made with logarithmically spaced concentrations, the data were plotted on a probitconcentration plot, and the IC50 read off. The KI of the compound was calculated by standard techniques.

T1 sequence (P07293 1-1664 limits assumed): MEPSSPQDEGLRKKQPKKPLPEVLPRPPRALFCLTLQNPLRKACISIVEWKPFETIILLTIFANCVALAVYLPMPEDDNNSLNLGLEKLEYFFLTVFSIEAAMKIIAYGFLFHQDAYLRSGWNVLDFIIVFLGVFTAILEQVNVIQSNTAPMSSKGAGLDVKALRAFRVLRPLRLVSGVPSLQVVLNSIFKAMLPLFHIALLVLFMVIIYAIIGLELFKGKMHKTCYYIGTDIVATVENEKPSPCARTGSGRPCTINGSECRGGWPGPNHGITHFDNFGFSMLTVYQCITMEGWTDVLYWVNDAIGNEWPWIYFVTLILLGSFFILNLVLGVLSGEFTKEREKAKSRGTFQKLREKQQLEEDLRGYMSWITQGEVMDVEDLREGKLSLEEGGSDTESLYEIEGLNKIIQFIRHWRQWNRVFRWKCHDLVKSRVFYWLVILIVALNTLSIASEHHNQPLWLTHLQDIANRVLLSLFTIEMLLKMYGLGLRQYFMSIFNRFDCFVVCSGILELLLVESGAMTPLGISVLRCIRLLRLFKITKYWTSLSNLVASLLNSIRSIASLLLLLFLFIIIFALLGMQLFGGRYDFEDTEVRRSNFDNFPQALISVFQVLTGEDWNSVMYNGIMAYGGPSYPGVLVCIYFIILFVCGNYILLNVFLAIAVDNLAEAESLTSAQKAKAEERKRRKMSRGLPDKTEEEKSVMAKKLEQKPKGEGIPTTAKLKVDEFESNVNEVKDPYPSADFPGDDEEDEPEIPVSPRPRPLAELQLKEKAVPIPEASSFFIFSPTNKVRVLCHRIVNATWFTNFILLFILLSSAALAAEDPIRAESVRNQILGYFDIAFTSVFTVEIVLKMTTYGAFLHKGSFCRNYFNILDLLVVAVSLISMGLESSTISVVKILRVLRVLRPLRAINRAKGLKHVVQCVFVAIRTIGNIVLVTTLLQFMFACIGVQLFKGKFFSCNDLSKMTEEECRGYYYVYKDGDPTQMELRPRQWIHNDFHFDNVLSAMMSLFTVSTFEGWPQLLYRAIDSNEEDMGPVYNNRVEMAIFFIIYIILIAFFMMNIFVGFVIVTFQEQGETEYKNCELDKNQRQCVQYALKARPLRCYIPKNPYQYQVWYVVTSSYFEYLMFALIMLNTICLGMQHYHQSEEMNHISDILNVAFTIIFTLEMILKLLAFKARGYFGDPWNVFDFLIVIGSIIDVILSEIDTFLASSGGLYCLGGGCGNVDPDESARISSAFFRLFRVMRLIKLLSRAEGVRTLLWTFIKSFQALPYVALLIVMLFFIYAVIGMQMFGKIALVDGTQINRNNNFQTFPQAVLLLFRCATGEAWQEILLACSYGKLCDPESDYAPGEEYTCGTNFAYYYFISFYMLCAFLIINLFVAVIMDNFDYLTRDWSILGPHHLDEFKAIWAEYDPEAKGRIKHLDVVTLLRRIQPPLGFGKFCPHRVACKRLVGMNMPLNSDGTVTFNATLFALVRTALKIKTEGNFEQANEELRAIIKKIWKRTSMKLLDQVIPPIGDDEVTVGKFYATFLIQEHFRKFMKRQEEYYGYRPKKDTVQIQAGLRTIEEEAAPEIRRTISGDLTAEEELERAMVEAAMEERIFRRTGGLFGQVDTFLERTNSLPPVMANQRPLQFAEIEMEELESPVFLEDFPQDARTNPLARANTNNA
T1 sequence (P13806 27-960 partner limits assumed): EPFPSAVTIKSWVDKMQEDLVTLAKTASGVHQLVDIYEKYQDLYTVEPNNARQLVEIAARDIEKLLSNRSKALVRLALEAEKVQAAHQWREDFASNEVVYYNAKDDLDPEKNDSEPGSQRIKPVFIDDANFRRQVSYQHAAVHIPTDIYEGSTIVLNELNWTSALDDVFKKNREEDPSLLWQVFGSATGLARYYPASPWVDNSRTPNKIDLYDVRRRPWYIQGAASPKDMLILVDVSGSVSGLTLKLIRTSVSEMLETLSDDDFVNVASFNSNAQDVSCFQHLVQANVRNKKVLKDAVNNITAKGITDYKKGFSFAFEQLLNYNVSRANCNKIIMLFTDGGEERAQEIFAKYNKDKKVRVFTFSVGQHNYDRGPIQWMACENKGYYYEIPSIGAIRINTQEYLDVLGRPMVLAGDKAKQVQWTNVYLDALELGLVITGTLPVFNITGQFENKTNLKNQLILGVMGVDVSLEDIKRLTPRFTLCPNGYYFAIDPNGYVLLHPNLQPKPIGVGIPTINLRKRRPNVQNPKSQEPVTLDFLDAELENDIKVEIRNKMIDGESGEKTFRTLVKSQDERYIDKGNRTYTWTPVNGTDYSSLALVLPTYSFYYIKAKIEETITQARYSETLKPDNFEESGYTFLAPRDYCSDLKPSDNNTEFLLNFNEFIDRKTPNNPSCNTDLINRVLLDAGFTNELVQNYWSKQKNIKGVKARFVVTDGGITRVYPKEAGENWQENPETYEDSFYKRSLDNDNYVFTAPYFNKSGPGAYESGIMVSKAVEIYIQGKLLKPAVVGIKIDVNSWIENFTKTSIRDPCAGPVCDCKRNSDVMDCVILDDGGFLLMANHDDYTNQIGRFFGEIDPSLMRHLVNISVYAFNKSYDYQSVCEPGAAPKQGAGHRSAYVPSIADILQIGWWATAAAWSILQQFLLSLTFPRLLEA
T1 sequence (P13806 961-1106 partner limits assumed): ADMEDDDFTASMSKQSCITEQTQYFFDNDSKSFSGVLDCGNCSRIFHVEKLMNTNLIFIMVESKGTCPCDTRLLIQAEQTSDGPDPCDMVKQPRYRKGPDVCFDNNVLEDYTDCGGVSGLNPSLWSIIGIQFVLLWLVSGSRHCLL
T1 sequence (P19517 whole entry partner): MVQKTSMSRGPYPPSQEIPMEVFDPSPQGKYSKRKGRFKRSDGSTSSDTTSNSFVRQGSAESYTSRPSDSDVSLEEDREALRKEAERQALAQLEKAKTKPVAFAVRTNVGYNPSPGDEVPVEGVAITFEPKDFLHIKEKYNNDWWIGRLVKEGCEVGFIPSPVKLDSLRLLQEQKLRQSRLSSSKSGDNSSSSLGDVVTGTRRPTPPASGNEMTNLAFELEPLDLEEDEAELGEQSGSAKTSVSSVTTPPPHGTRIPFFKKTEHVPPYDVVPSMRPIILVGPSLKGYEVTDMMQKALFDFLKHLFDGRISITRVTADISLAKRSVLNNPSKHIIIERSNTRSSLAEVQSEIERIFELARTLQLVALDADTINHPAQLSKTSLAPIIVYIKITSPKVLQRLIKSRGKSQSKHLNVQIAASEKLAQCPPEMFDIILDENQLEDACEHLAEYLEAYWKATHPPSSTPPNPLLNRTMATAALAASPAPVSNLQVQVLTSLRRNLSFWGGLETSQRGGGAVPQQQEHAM
T1 sequence (P19518 whole entry partner): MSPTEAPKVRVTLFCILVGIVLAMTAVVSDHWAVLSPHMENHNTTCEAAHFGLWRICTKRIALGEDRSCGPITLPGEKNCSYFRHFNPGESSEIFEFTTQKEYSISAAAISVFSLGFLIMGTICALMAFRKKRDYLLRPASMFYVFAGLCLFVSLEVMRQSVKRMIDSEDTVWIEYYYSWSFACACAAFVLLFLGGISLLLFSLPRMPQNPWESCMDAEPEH

SMILES	Ki [nM]
COC(=O)C1=C(C)NC(C)=C(C(=O)OCCN)C1c1cccc([N+](=O)[O-])c1 (stereo not shown) [Example 3, 1,4-Dihydro-2,6-dimethyl-4-(3-nitrophenyl)-3,5-pyridine dicarboxylic acid, 3-(2-aminoethyl)-5-methyl ester]	> 100
COC(=O)C1=C(C)NC(C)=C(C(=O)OCCN)C1c1cccc(C)c1 (stereo not shown) [Example 2, 1,4-Dihydro-2,6-dimethyl-4-(3-methylphenyl)-3,5-pyridine dicarboxylic acid, 3-(2-aminoethyl)-5-methyl ester]	1250
COC(=O)C1=C(C)NC(C)=C(C(=O)OCCCCCCN=C=S)C1c1cccc([N+](=O)[O-])c1 (stereo not shown) [Example 9, 1,4-Dihydro-2,6-dimethyl-4-(3-nitrophenyl)-3,5-pyridine dicarboxylic acid, 3-(6-isothiocyanatohexyl)-5-methyl ester]	1.9
COC(=O)C1=C(C)NC(C)=C(C(=O)OCCN=C=S)C1c1cccc([N+](=O)[O-])c1 (stereo not shown) [Example 7, 1,4-Dihydro-2,6-dimethyl-4-(3-nitrophenyl)-3,5-pyridine dicarboxylic acid, 3-(2isothiocyanatoethyl)-5-methyl ester]	1.3
COC(=O)C1=C(C)NC(C)=C(C(=O)OCCCN=C=S)C1c1cccc([N+](=O)[O-])c1 (stereo not shown) [Example 8, 1,4-Dihydro-2.6-dimethyl-4-(3-nitrophenyl)-3,5-pyridine dicarboxylic acid, 3-(3-isothiocyanatopropyl)-5-methyl ester]	1.6
CCOC(=O)C1=C(CCN2C(=O)c3ccccc3C2=O)NC(C)=C(C(=O)OC)C1c1cccc([N+](=O)[O-])c1 (stereo not shown) [12(e), 1,4-Dihydro-6-methyl-4(3-nitrophenyl)2-(2-phthalimidoethyl)-3,5-pyridine dicarboxylic acid-3-ethyl-5-methyl ester]	105
CCOC(=O)C1=C(CCN2C(=O)c3ccccc3C2=O)NC(CCN2C(=O)c3ccccc3C2=O)=C(C(=O)OCC)C1c1cccc([N+](=O)[O-])c1 [Example 13, 1,4-Dihydro-4(3-nitrophenyl)-2,6-(2-phthalimidoethyl)-3,5-pyridine dicarboxylic acid, ethyl ester]	1120
